Where a name gives a salt, the structure may show the parent alone.
Assays:
[1] = target: human κ-receptor (Homo sapiens, UniProt P41145); assay: [3H]-diprenorphine competitive binding assay, CHO-κ cell membranes; conditions: from Ki values, Table 1
[2] = tested on: CD-1 mice; assay: Light dark box; assay type: in vivo; conditions: 8 and 15 d post-injection; diazepam 1 mg/kg 30 min prior
[3] = tested on: CD-1 mice; assay: Elevated-plus maze; assay type: in vivo
[4] = tested on: CD-1 mice; assay: Forced swim test; assay type: in vivo
[5] = tested on: CD-1 mice; assay: Tail suspension test; assay type: in vivo; conditions: pilot studies, fluoxetine 10 mg/kg; control 6.9 ± 0.7 N
[6] = tested on: CD-1 mice; assay: Sucrose consumption test; conditions: fluoxetine 10 mg/kg, vs saline-treated controls
[7] = tested on: rat; conditions: 20mg/kg; ref Wiley et al., 2009; cited from earlier work
[8] = tested on: CD-1 mice; assay: Warm water tail-withdrawal test, block of U50,488-induced antinociception; assay type: in vivo; conditions: U50,488 10 mg/kg, single injection
[9] = tested on: κ-receptors; conditions: single injection, ref Endoh et al., 1992, Jones and Holtzman; cited from earlier work
[10] = target: δ-receptor (Rattus norvegicus, UniProt P33533); assay: [3H]-diprenorphine competitive binding assay, C6-δ cell membranes
[11] = target: κ-receptors (Cavia porcellus, UniProt P41144); assay: Isolated guinea-pig ileum, U50,488 concentration-response curves
[12] = tested on: rats; conditions: ref Wiley et al., 2009; cited from earlier work
[13] = tested on: Wistar rats; assay: κ-agonist; assay type: in vivo; conditions: 1 mg/kg
[14] = tested on: μ-receptors; assay: Isolated guinea-pig ileum, DAMGO concentration-response curves; conditions: agonist at maximal doses
[15] = diazepam 1 mg/kg 30 min prior to test, each test day

With NC(N)=Nc1ccc2[nH]c3c(c2c1)C[C@@]1(O)[C@H]2Cc4ccc(O)c5c4[C@@]1(CCN2CC1CC1)[C@H]3O5 [GNTI, 5’-guanidinonaltrindole] the “κ-selectivity vs. δ” value [1] was roughly 4.
With CN1C(=O)CN=C(c2ccccc2)c2cc(Cl)ccc21 [diazepam] the “LDB time spent in the lit compartment” value [2] was “significantly different from saline treated controls”, the “EPM entries into the open arms” value [3, 15] was “significantly increased” and the “EPM time spent in the open arms” value [3, 15] was “significantly increased”.
With CNCCC(Oc1ccc(C(F)(F)F)cc1)c1ccccc1 (centres unmarked) [fluoxetine, fluoxetine hydrochloride] the “FST time spent immobile” value ([4]; fluoxetine 10 mg/kg 30 min prior, days 6 and 13) was “decreased the time spent immobile”, the TST average force [5] was 7.7 ± 0.5 N and the “increase in sucrose consumption” value [6] was 40%.
For Oc1ccc2c3c1O[C@H]1c4[nH]c5c(c4C[C@@]4(O)[C@@H](C2)N(CC2CC2)CC[C@]314)C[C@@]1(O)[C@H]2Cc3ccc(O)c4c3[C@@]1(CCN2CC1CC1)[C@H]5O4 [norBNI, Norbinaltorphimine], the “duration of antidepressant-like effects in the rat FST” value [7] is given as “up to 4 wks post-injection”, the “effect on antinociceptive effects of U50,488 (overall)” value [8] is given as “significantly reduced the antinociceptive effects of U50,488” and the “time maximal levels maintained” value [9] is given as 7 to 10 days. For the same compound, the “time of peak effects post-administration” value [9] was ~ 24 h, the “time of returning to control levels” value [9] was 3–4 weeks and the Ki [10] was 0.46 ± 0.09 nM. For the same compound, the “reversibility of κ-antagonist effect on washout” value [11] was “reversed on washout”, the “effect on U50,488 Emax” value ([11]; increasing antagonist concentrations) was “without significant affect on Emax” and the “pA2 Schild plot (+ 95% CI), κ” value ([11]; vs U50,488, n=4 tissues) was 8.30. For the same compound, the “FST time spent immobile” value ([4]; 6 and 13 d post-injection of antagonist) was “significantly decreased the time spent immobile”, the “behavioural effects in the FST still apparent, time post-injection” value ([4]; single injection) was “up to 13 days post-injection” and the “effect on sucrose (0.5%) consumption” value [12] was “had no effect on sucrose (0.5%) consumption”. The “reversal of the effects of U50,488 on sucrose consumption” value [12] was “did reverse the effects of U50,488”, the “EPM number of entries into the open arms” value ([3]; 7 d post-injection) was “significantly increased” and the “EPM time spent in the open arms” value ([3]; 7 d post-injection) was “significantly increased the time spent”. The “EPM time spent in the open arms” value ([3]; 14 d post-injection, 1 and 10 mg/kg) was “significantly increased the time spent in the open arms”, the “reduction of U50,488-evoked diuresis” value ([13]; 8 d post-treatment) was “about 30%” and the “reduction of U50,488-evoked diuresis” value ([13]; 15 d post-treatment) was “maintained at 15 d post-treatment”.
With DAMGO the “inhibition of electrically-evoked twitches” value [14] was ~ 90%.
